These are literature values, as cited in patent EP2266541A1, “Solid pharmaceutical composition comprising rivaroxaban” (Krka Tovarna Zdravil, D.D., Novo Mesto, priority 2009, dated 2010).

For the data set the following is noted: stated in the background section, no method given.

As for `O=C(NC[C@H]1CN(c2ccc(N3CCOCC3=O)cc2)C(=O)O1)c1ccc(Cl)s1` [Rivaroxaban, 5-chloro-N-{[(5S)-2-oxo-3-[4-(3-oxomorpholin-4-yl)phenyl]oxazolidin-5-yl]methyl}thiophene-2-carboxamide], the solubility in water entry is “about 7 mg/L”.
